Reference: patent publication US8633205B2, “Substituted pyrrolo[2,3-d]pyrimidines as inhibitors of protein kinases” (Vertex Pharmaceuticals Incorporated, priority 2005, dated 2014)

Assays:
Type in all cases: biochemical
PKA = PKA (Homo sapiens, UniProt P17612); assay: PKA Inhibition Assay (coupled enzyme assay); settings: 50 μM ATP, 80 μM Kemptide, 18 nM PKA, 30 °C
Method: Compounds were screened for their ability to inhibit PKA using a standard coupled enzyme assay (Fox et al., Protein Sci, 1998, 7, 2249). Assays were carried out in a mixture of 100 mM HEPES (pH 7.5), 10 mM MgCl2, 25 mM NaCl, 1 mM DTT and 3% DMSO. Final substrate concentrations in the assay were 50 μM ATP (Sigma Chemicals) and 80 μM peptide (Kemptide, American Peptide, Sunnyvale, Calif.). Assays were carried out at 30 ° C. and 18 nM PKA. Final concentrations of the components of the coupled enzyme system were 2.5 mM phosphoenolpyruvate, 300 μM NADH, 30 μg/ml pyruvate kinase and 10 μg/ml lactate dehydrogenase.
An assay stock buffer solution was prepared containing all of the reagents listed above, with the exception of ATP, and the test compound of the present invention. 55 μl of the stock solution was placed in a 96 well plate followed by addition of 2 μl of DMSO stock containing serial dilutions of the test compound of the present invention (typically starting from a final concentration of 5 μM). The plate was preincubated for 10 minutes at 30° C. and the reaction initiated by addition of 5 μl of ATP (final concentration 50 μM). Initial reaction rates were determined with a Molecular Devices SpectraMax Plus plate reader over a 15 minute time course. IC50 and Ki data were calculated from non-linear regression analysis using the Prism software package (GraphPad Prism version 3.0a for Macintosh, GraphPad Software, San Diego, Calif., USA).

JAK2 = JAK2 (Homo sapiens, UniProt O60674); assay: JAK2 Inhibition Assay; settings: 15 μM poly(Glu)4Tyr, 12 μM ATP; read-out: JAK2 enzyme inhibition (Ki)
Method: (§1) Compounds were screened for their ability to inhibit JAK using the […] below. Reactions were carried out in a kinase buffer containing 100 mM HEPES (pH 7.4), 1 mM DTT, 10 mM MgCl2, 25 mM NaCl, and 0.01% BSA.
(§2) Substrate concentrations in the assay were 5 μM ATP (200 uCi/μmole ATP) 1 μM poly(Glu)4Tyr. Reactions were carried out at 25 ° C. and 1 nM JAK3.
(§3) To each well of a 96 well polycarbonate plate was added 1.5 μl of a JAK3 inhibitor along with 50 μl of kinase buffer containing 2 μM poly(Glu)4Tyr and 10 μM ATP. This was then mixed and 50 μl of kinase buffer 2 nM JAK3 enzyme was added to start the reaction. After 20 minutes at room temperature (25C), the reaction was stopped with 50 μl of 20% trichloroacetic acid (TCA) that also contained 0.4 mM ATP. The entire contents of each well were then transferred to a 96 well glass fiber filter plate using a TomTek Cell Harvester. After washing, 60 μl of scintillation fluid was added and ^33P incorporation detected on a Perkin Elmer TopCount.
As described above in Example 11 except that JAK-2 enzyme is used, the final poly(Glu)4Tyr concentration is 15 μM, and final ATP concentration is 12 μM.

JAK3 = biological target: T1, JAK3 (Homo sapiens, UniProt P52333); assay: JAK3 Inhibition Assay; settings: 1 μM poly(Glu)4Tyr, 5 μM ATP, 1 nM JAK3, 25 °C; read-out: JAK3 enzyme inhibition (Ki)
T1 sequence (P52333 1-1124): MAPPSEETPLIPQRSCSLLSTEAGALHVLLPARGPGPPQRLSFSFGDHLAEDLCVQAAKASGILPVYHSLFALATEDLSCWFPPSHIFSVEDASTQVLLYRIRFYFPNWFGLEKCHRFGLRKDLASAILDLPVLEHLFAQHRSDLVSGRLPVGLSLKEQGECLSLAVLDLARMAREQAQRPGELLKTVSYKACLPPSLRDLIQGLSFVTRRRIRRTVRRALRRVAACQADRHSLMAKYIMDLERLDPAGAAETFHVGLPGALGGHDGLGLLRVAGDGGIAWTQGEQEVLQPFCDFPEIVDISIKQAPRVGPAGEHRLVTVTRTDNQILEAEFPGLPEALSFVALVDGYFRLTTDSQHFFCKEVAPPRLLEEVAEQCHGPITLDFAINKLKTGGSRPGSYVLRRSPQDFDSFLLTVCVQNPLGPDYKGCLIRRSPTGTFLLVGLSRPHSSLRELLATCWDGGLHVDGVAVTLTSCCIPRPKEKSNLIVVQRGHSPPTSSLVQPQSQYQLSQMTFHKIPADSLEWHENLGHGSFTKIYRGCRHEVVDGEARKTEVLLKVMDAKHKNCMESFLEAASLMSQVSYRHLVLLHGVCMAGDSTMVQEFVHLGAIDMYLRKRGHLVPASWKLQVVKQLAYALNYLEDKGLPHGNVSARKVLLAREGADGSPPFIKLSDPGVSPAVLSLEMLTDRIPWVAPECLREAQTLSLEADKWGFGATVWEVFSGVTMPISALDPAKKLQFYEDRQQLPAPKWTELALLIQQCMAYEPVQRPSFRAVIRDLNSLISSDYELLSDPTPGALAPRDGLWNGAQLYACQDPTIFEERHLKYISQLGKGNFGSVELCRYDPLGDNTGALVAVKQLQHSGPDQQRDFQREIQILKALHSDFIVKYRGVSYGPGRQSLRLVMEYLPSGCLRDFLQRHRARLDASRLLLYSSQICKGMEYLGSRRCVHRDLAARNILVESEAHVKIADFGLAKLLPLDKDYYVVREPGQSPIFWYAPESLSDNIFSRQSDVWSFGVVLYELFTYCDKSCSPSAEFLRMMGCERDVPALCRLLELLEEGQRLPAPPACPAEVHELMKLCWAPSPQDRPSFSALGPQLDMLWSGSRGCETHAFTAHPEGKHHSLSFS
Method: as §1, §2, §3

ROCK = biological target: T2, ROCK (Homo sapiens, UniProt Q13464); assay: ROCK Inhibition Assays; settings: read-out: ROCK enzyme inhibition (Ki)
T2 construct: ROCK I (AA 6-553)
Method: Compounds are screened for their ability to inhibit ROCK I (AA 6-553) activity using a standard coupled enzyme system (Fox et al. Protein Sci. 7: 2249, 1998). Reactions are carried out in a solution containing 100 mM HEPES (pH 7.5), 10 mM MgCl2, 25 mM NaCl, 2 mM DTT and 1.5% DMSO. Final substrate concentrations in the assay are 45 μM ATP (Sigma Chemicals, St Louis, Mo.) and 200 μM peptide (American Peptide, Sunnyvale, Calif.). Reactions are carried out at 30 ° C. and 45 nM ROCK I. Final concentrations of the components of the coupled enzyme system are 2.5 mM phosphoenolpyruvate, 350 μM NADH, 30 μg/ml pyruvate kinase and 10 μg/ml lactate dehydrogenase.
Compounds are screened for their ability to inhibit ROCK using a standard radioactive enzyme assay. Assays are carried out in a solution containing 100 mM HEPES (pH 7.5), 10 mM MgCl2, 25 mM NaCl, 2 mM DTT and 1.5% DMSO. Final substrate concentrations in the assay are 13 μM [γ-^33P] ATP (25 mCi ^33P ATP/mmol ATP, Perkin Elmer, Cambridge, Mass./Sigma Chemicals, St Louis, Mo.) and 27 μM Myelin Basic Protein (MBP). Final enzyme concentration in the assay is 5 nM ROCK. Assays are carried out at room temperature. 1.5 μl of DMSO stock containing serial dilutions of the compound of the present invention (concentrations ranging from 10 μM to 2.6 nM) is placed in a 96 well plate. 50 μl of Solution 1 (100 mM HEPES (pH 7.5), 10 mM MgCl2, […] [γ-^33P] ATP) is added to the plate. The reaction is initiated by addition of 50 μl of Solution 2 (100 mM HEPES (pH 7.5), 10 mM MgCl2, 4 mM DTT, […] and 10 nM ROCK). After 2 hours the reaction is quenched with 50 μL of 30% trichloroacetic acid (TCA, Fisher) containing 9 mM ATP. Transfer of 140 μL of the quenched reaction to a glass fiber filter plate (Corning, Cat. No.3511) is followed by washing 3 times with 5% TCA. 50 μL of Optima Gold scintillation fluid (Perkin Elmer) is added and the plates are counted on a Top Count (Perkin Elmer). After removing mean background values for all of the data points the data is fit using Prism software to obtain a Ki(app).

T2 sequence (Q13464 6-553): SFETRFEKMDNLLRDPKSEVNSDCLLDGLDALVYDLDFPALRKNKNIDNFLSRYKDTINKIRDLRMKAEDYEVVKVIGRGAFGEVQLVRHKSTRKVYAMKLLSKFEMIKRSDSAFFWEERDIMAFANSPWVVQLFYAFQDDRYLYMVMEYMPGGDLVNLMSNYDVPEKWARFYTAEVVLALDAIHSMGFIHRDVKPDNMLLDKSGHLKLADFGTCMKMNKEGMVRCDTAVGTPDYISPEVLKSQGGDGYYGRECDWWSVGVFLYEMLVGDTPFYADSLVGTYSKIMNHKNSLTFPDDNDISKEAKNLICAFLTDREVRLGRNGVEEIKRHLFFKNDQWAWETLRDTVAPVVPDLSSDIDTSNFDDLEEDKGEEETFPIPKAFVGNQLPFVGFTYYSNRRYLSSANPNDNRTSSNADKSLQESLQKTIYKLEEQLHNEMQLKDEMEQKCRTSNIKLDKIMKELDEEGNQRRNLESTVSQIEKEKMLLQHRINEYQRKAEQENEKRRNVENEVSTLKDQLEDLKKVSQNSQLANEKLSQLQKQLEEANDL
JAK2, sequence (O60674 whole entry): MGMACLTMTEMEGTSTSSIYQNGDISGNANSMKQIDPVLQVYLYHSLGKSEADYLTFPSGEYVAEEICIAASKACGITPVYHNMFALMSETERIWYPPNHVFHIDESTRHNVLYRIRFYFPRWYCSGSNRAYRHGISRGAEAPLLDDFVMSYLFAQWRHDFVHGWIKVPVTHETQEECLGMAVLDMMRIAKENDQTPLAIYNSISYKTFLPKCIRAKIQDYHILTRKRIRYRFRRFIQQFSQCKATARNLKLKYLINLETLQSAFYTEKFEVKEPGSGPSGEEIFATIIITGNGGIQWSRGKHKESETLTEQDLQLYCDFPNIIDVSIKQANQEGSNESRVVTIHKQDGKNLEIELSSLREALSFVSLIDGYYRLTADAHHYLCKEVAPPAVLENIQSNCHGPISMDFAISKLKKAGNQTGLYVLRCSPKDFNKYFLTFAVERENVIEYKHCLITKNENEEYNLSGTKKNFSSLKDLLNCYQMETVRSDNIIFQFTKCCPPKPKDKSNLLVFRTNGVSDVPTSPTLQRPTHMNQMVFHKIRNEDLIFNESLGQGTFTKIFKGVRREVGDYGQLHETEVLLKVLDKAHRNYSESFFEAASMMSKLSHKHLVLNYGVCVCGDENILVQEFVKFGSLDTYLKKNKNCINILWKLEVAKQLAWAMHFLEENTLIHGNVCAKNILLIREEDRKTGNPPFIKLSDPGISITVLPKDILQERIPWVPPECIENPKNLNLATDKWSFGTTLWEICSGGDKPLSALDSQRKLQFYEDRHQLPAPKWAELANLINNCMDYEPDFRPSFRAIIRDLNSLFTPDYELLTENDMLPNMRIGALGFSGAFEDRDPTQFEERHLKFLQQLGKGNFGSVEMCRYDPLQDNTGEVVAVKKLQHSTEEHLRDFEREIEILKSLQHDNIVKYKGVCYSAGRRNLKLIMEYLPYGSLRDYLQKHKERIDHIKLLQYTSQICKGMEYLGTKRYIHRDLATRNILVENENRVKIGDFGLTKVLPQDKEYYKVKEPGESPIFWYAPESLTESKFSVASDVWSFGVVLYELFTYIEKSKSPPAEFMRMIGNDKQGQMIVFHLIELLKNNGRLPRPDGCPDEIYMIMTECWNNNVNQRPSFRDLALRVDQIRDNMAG

| Structure (SMILES) | Ki (PKA) [µM] | Ki (JAK2) [µM] | Ki (JAK3) [µM] | Ki (ROCK) [µM] |
| --- | --- | --- | --- | --- |
| C1=C(c2ncnc3[nH]ccc23)CCC1 [Compound 1, 4-cyclopentenyl-7H-pyrrolo[2,3-d]pyrimidine] | 0.5 to 5 | < 0.5 | < 0.5 | 0.5 to 5 |
| C1=C(c2ncnc3[nH]ccc23)CCCC1 [Compound 2] | 0.5 to 5 | < 0.5 | < 0.5 | 0.5 to 5 |
| c1nc(C2CCCC2)c2cc[nH]c2n1 [Compound 3, 4-cyclopentyl-7H-pyrrolo[2,3-d]pyrimidine] | 0.5 to 5 | 0.5 to 5 | 0.5 to 5 | 0.5 to 5 |
| C(=C\c1ncnc2[nH]ccc12)/c1ccccc1 [Compound 4, 4-styryl-7H-pyrrolo[2,3-d]pyrimidine] | 0.5 to 5 | < 0.5 | < 0.5 | 0.5 to 5 |
| Fc1ccc(/C=C/c2ncnc3[nH]ccc23)cc1 [Compound 5, 4-(4-fluorostyryl)-7H-pyrrolo[2,3-d]pyrimidine] | 0.5 to 5 | < 0.5 | < 0.5 | 0.5 to 5 |
| Clc1ccc(/C=C/c2ncnc3[nH]ccc23)cc1 [Compound 6, 4-(4-chlorostyryl)-7H-pyrrolo[2,3-d]pyrimidine] | 0.5 to 5 | < 0.5 | < 0.5 | 0.5 to 5 |
| FC(F)(F)c1ccc(/C=C/c2ncnc3[nH]ccc23)cc1 [Compound 7, 4-(4-(trifluoromethyl)styryl)-7H-pyrrolo[2,3-d]pyrimidine] | 0.5 to 5 | < 0.5 | < 0.5 | 0.5 to 5 |
| C=C(c1ccccc1)c1ncnc2[nH]ccc12 [Compound 8, 4-(1-phenylvinyl)-7H-pyrrolo[2,3-d]pyrimidine] | 0.5 to 5 | > 5 | 0.5 to 5 | 0.5 to 5 |
| CC(C)(C)OC(=O)N1CC=C(c2ncnc3[nH]ccc23)CC1 [Compound 9] | 0.5 to 5 | < 0.5 | < 0.5 | 0.5 to 5 |
| C1=C(c2ncnc3[nH]ccc23)CCNC1 [Compound 10] | 0.5 to 5 | > 5 | > 5 | 0.5 to 5 |
| CC1CCCC=C1c1ncnc2[nH]ccc12 (stereo not drawn) [Compound 11] | 0.5 to 5 | 0.5 to 5 | < 0.5 | 0.5 to 5 |
| C=C(c1ncnc2[nH]ccc12)C1CCCCC1 [Compound 12] | 0.5 to 5 | 0.5 to 5 | – | 0.5 to 5 |
| C1=C(c2ncnc3[nH]ccc23)CCSC1 [Compound 13] | 0.5 to 5 | < 0.5 | < 0.5 | 0.5 to 5 |
| C=Cc1ncnc2[nH]ccc12 [Compound 14] | 0.5 to 5 | 0.5 to 5 | 0.5 to 5 | 0.5 to 5 |
| CC(=O)N1CC=C(c2ncnc3[nH]ccc23)CC1 [Compound 15] | 0.5 to 5 | > 5 | > 5 | 0.5 to 5 |
| O=C(CC(F)(F)F)N1CC=C(c2ncnc3[nH]ccc23)CC1 [Compound 16] | 0.5 to 5 | 0.5 to 5 | > 5 | 0.5 to 5 |
| N#CCC(=O)N1CC=C(c2ncnc3[nH]ccc23)CC1 [Compound 17] | 0.5 to 5 | < 0.5 | 0.5 to 5 | 0.5 to 5 |
| C=C(c1ncnc2[nH]ccc12)C1CCCC1 [Compound 18] | 0.5 to 5 | < 0.5 | < 0.5 | 0.5 to 5 |
| CC1CC=C(c2ncnc3[nH]ccc23)C1C (stereo not drawn) [Compound 19] | 0.5 to 5 | < 0.5 | < 0.5 | 0.5 to 5 |
| C1=C(c2ncnc3[nH]ccc23)CCCCC1 [Compound 20] | 0.5 to 5 | < 0.5 | < 0.5 | 0.5 to 5 |
| C1=C(c2ncnc3[nH]ccc23)C2CCC1C2 (stereo not drawn) [Compound 21] | 0.5 to 5 | < 0.5 | < 0.5 | 0.5 to 5 |
| C=C(c1ncnc2[nH]ccc12)C1CCCN(C(=O)OC(C)(C)C)C1 (stereo not drawn) [Compound 22] | 0.5 to 5 | 0.5 to 5 | 0.5 to 5 | 0.5 to 5 |
